The results in this text go back to the SangsterLogP compilation.

The nature of one data set: method code SF-AS, from DOI: 10.1002/qsar.19890080102. Particulars: pH 1.5.
`NS(=O)(=O)c1cccc(S(N)(=O)=O)c1` yielded a pH-dependent lipophilicity (logD) of -0.5.

With `NS(=O)(=O)c1cccc(Cl)c1`, the logD came to 1.16.

In the case of `CS(=O)(=O)Nc1ccc(S(N)(=O)=O)cc1`, the logD was -0.4.

With `CCCCOc1cccc(S(N)(=O)=O)c1`, the logD turned out to be 2.06.

Take `CCCCOc1ccc(S(N)(=O)=O)cc1`: the pH-dependent lipophilicity (logD) is 2.05.

`NS(=O)(=O)c1cccc(I)c1` came in with a logD of 1.58.

In the case of `NS(=O)(=O)c1ccc(-c2ccccc2)cc1`, the logD is 2.24.

Take `NS(=O)(=O)c1ccc(I)cc1`: the logD turned out to be 1.55.

Compound `CC(C)c1cccc(S(N)(=O)=O)c1` displayed a log distribution coefficient (logD) of 1.66.

`CC(C)c1ccc(S(N)(=O)=O)cc1` displayed a logD of 1.71.

`NS(=O)(=O)c1cccc(Br)c1` had a logD of 1.35.

For the compound `NS(=O)(=O)c1ccc(Br)cc1`, the logD came to 1.34.

Staying with this data set, now noted: pH 5.5.
For `Nc1cccc(S(N)(=O)=O)c1`, the logD was -0.32.

The logD is the decadic logarithm of the distribution of all forms, ionised or not, between an organic phase and buffer at a given pH.
